Assay results as given in PubChem BioAssay (NCI).
Values joined by “and” are separate entries in the source; they are usually repeats but may differ in a detail not shown here. Equal entries are not always repeated.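 How tested: cells in 96-well plates exposed to compound for 48 hours at five concentrations. Abbreviation: GI50, concentration required for 50% inhibition of growth. TGI is the concentration that stops growth completely.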

Columns and labels:
Assay in all cases: NCI tumour cell line growth inhibition, 48 h
786-0 renal = system: 786-0 renal
COLO 205 colon = system: COLO 205 colon
DU-145 prostate = system: DU-145 prostate
HOP-92 NSCLC = system: HOP-92 NSCLC
HT29 colon = system: HT29 colon
K-562 leukemia = system: K-562 leukemia
MDA-MB-231 breast = system: MDA-MB-231 breast
NCI-H460 lung = system: NCI-H460 lung
OVCAR-5 ovarian = system: OVCAR-5 ovarian
NCI-H226 lung = system: NCI-H226 lung

SMILES | TGI (786-0 renal) | TGI (COLO 205 colon) [µM] | TGI (DU-145 prostate) [µM] | TGI (HOP-92 NSCLC) [µM] | TGI (HT29 colon) [µM] | TGI (K-562 leukemia) [µM] | TGI (MDA-MB-231 breast) [µM] | TGI (NCI-H460 lung) [µM] | TGI (OVCAR-5 ovarian) | TGI (NCI-H226 lung) | GI50 (COLO 205 colon) [µM] | GI50 (DU-145 prostate) [µM] | GI50 (HOP-92 NSCLC) [µM] | GI50 (HT29 colon) [µM] | GI50 (NCI-H226 lung) [µM] | GI50 (NCI-H460 lung) [µM] | GI50 (OVCAR-5 ovarian) [µM] | GI50 (K-562 leukemia) [µM] | GI50 (MDA-MB-231 breast) [µM]
Cc1nccn1S(=O)(=O)c1ccc(Br)cc1Br | > 100 µM | 33.4 | > 100 | 75.3 | > 100 | > 100 | 48.5 | > 100 | > 100 µM | – | – | – | – | – | – | – | – | – | –
C1#Cc2ccccc2OCCOc2ccccc2C#Cc2ccccc2OCCOc2ccccc21 | 28.8 µM | > 100 | > 100 | – | > 100 | 24.3 | 54.9 | > 100 | 65.2 µM | 38.3 µM | – | – | – | – | – | – | – | – | –
Cn1c(-c2ccc[se]2)ccc1-c1ccc(CO)[se]1 | > 100 µM | 6.01 | > 78 | 43.2 | – | > 100 | > 88.2 | 18.8 | – | 0.884 µM | – | – | – | – | – | – | – | – | –
C[C@H](CC[C@@H](O)C(C)(C)O)[C@H]1CC[C@@]2(C)[C@@H]3CC=C4[C@@H](CC[C@H](O)C4(C)C)[C@]3(C)C(=O)C[C@]12C | > 50 µM | 31.8 | > 50 | – | > 50 | > 50 | > 50 | > 50 | > 50 µM | > 50 µM | – | – | – | – | – | – | – | – | –
O=C(NC1(C(=O)NNc2nnc(-c3ccccc3)c(-c3ccccc3)n2)C(c2ccccc2)C(c2ccccc2)=NN1c1ccccc1)c1ccccc1 (stereo not drawn) | > 100 µM | > 100 | > 100 | > 100 | > 100 | – | > 100 | > 100 | > 100 µM | > 100 µM | – | – | – | – | – | – | – | – | –
C=C(CC(=O)Nc1ccc(C(=O)OC)o1)C(=O)OC | 39.6 µM | 41.1 | > 100 | > 100 | 70.2 | – | 58.2 | > 100 | 35.5 µM | 66.8 µM | – | – | – | – | – | – | – | – | –
CCOC(=O)c1c2c(n3ccc(NC(=O)OC(C)(C)C)cc13)C(=O)c1ncccc1C2=O | – | 1.56 | 1.66 | 0.927 | 2.22 | – | – | 0.123 | 1.65 µM | 0.757 µM | 0.352 | 0.0653 | 0.137 | 0.638 | 0.174 | 0.0273 | 0.0971 | – | –
O=c1[nH]c2ccccc2nc1/C=C(\O)C(F)F | > 100 µM | > 100 | > 100 | – | > 100 | > 100 | > 100 | > 100 | > 100 µM | > 100 µM | – | – | – | – | – | – | – | – | –
O=C(c1ccccc1)c1c(C(F)(F)F)n([O-])c2cc(Cl)c(Cl)cc2[n+]1=O | 0.959 µM | 18.8 | 0.985 | 19.9 | 0.966 | 6.09 | – | 4.53 | 3.41 µM | 13.7 µM | – | – | – | – | – | – | – | – | –
CCN(CC)C(=S)N/N=C/c1ccccn1 | 19 µM | > 53.9 | 1.27 | 2.44 | > 100 | > 100 | > 100 | – | > 100 µM | 0.989 µM | – | – | – | – | – | – | – | – | –
O=C1c2ccccc2C(=O)c2c1ccc1c2N=C(c2ccc(F)cc2)CC(c2ccc(Cl)c(Cl)c2)N1 (stereo not drawn) | – | 33.4 | – | 90 | 26.3 | 33.5 | – | 43 | 28 µM | 65.6 µM | – | – | – | – | – | – | – | – | –
CC(=O)OCc1cc(=O)n(C)c2c3c4c(cc12)c(C)cc(=O)n4CO3 | – | 4.23 | – | 10 | 8.81 | 27.7 | – | 5.74 | 20.5 µM | 5.5 µM | – | – | – | – | – | – | – | – | –
Cc1ccc(-n2c(O)c3c(N)n[nH]c3c(C#N)c2=O)cc1 | > 100 µM | > 100 | > 100 | – | > 100 | > 100 | > 100 | > 100 | > 100 µM | > 100 µM | – | – | – | – | – | – | – | – | –
O=c1[nH]c(=O)n(COCc2ccccc2)c2ccc([N+](=O)[O-])cc12 | > 100 µM | > 100 | > 100 | > 100 | > 100 | > 100 | > 100 | – | > 100 µM | > 100 µM | – | – | – | – | – | – | – | – | –
Cc1ccc(C)c(COCCOCn2cc(Br)c(N)nc2=O)c1 | > 100 µM | > 100 | > 100 | > 100 | – | > 100 | > 100 | > 100 | > 100 µM | > 100 µM | – | – | – | – | – | – | – | – | –
CCOC(=O)C(NC(=O)CC(C)C)(Nc1ccc(C(F)(F)F)cc1)C(F)(F)F (stereo not drawn) | > 100 µM | – | > 100 | > 100 | > 100 | > 100 | – | > 100 | > 100 µM | > 100 µM | – | – | – | – | – | – | – | – | –
Nc1ccccc1NC(=O)CCCCCCC(=O)Nc1ccc2c(c1)/C(=C/c1ccc[nH]1)C(=O)N2 | – | > 100 | > 100 | – | > 100 | > 100 | > 100 | > 100 | > 100 µM | – | 43.8 | 7.06 | – | > 100 | – | 22.4 | > 100 | 8.75 | > 100
O=C(Nc1nnc(-c2ccccc2)o1)C(SC(=S)N1CCOCC1)c1ccccc1 (stereo not drawn) | > 100 µM | > 100 | > 100 | – | > 100 | > 100 | > 100 | 66.1 | 88.8 µM | > 100 µM | – | – | – | – | – | – | – | – | –
CN(C)CCCNc1c2ccccc2nc2cccc([N+](=O)[O-])c12 | 0.0058 µM and 0.0531 µM | – | 0.0131 | 0.00435 | – | > 100 | 0.00712 | 0.00781 | 0.0214 µM and 0.0509 µM | 0.0589 µM and 0.0601 µM | – | – | – | – | 0.0196 | – | 0.0197 | – | –
CC(=O)NC1C(OCc2ccccc2)OC(CO)C(O)C1OCC(=O)NC(C)C(=O)NC(CCC(=O)NCCCCCNc1c2ccccc2nc2cccc([N+](=O)[O-])c12)C(N)=O (stereo not drawn) | 0.000206 µM | < 0.0001 | – | 0.00311 | < 0.0001 | < 0.0001 | < 0.0001 | – | – | 0.00254 µM | – | – | – | – | – | – | – | – | –
COC(=O)c1nc(-c2ccc3c(n2)C(=O)C(N)=C(OC)C3=O)c(N)c(-c2ccc(OC)c(OC)c2O)c1C | – | 3.61 | – | 5.79 | 4.43 | 5.63 | – | – | – | 1.41 µM | – | – | – | – | – | – | – | – | –
